Here are results for twelve compounds from ChEMBL document CHEMBL1201862, “PubChem BioAssay data set” (2004).

“And” between values parts separate entries of the source, which are not always exact repeats. Equal entries are not always repeated.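 All cell lines were grown in 96-well plates and treated with compound for 48 hours. Abbreviation: GI50, concentration required for 50% inhibition of growth.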 The source made the active and inactive calls. No stated cut-off is given here; in the data, active = GI50 up to about 1.1 µM and inactive = higher. Bounds are passed on as bounds.

Some test systems named below: 786-0; CAKI-1; EKVX; HCT-116; HT-29; MDA-N; NCI-H23; OVCAR-3; RXF 393; SF-268; SK-MEL-5; SK-OV-3; SNB-75; T47D; Hs-578T; LOX IMVI; NCI-H226; OVCAR-5; TK-10; UACC-257.
Holding throughout (experiment): NCI anticancer screen, dose series, 48 h

With `CCOc1cc(CC[N+](C)(C)C)c2c(ccc3ccc(OC)c(OC)c32)c1OC`, the GI50 in the assay with 786-0, with CAKI-1, with EKVX, in the assay with HCT-116, with HT-29 and with MDA-N was > 100 µM (inactive) in each case. Moreover, the GI50 in the assay on NCI-H23 is > 10 µM (inactive); in the assay with OVCAR-3, 53.3 µM (inactive); in the assay with RXF 393, > 10 µM (inactive); in the assay on SF-268, > 100 µM (inactive); with SK-MEL-5, 63 µM (inactive); in the assay with SK-OV-3, > 100 µM (inactive). Also, the GI50 with SNB-75 and in the assay with T47D was > 100 µM (inactive) each time.
Regarding `CCOP(=O)(OCC)C(C)(CC)NC(=O)C(C(F)(F)F)C(F)(F)F` (configuration not stated), the GI50 is 40.4 µM (inactive) and 61.5 µM (inactive) in the assay on 786-0; > 100 µM (inactive) with CAKI-1; > 100 µM (inactive) with EKVX; > 100 µM (inactive) in the assay on HCT-116; > 100 µM (inactive) in the assay on HT-29; > 100 µM (inactive) in the assay on Hs-578T. Also, the GI50 with LOX IMVI was > 88.3 µM (inactive) and 72.3 µM (inactive); with MDA-N, > 100 µM (inactive); in the assay on NCI-H226, > 100 µM (inactive); in the assay with NCI-H23, > 100 µM (inactive); in the assay on OVCAR-3, > 100 µM (inactive); in the assay on OVCAR-5, > 100 µM (inactive). Also, the GI50 in the assay on RXF 393 is > 100 µM (inactive); in the assay with SF-268 it was > 100 µM (inactive); in the assay on SK-MEL-5, > 100 µM (inactive); in the assay on SK-OV-3, > 100 µM (inactive); in the assay with TK-10, 75.9 µM (inactive); with UACC-257, > 100 µM (inactive).
For `O=P(O)(CN1CCN(CP(=O)(O)c2ccccc2)CCN(CP(=O)(O)c2ccccc2)CC1)c1ccccc1`, the GI50 in the assay on 786-0 was 78 µM (inactive); in the assay on CAKI-1, 45.8 µM (inactive); in the assay with EKVX it was > 100 µM (inactive); in the assay on HCT-116 it was 36.8 µM (inactive); with HT-29, 26.1 µM (inactive); in the assay on LOX IMVI, 67.3 µM (inactive). The GI50 with MDA-N is 67.8 µM (inactive); with NCI-H226 it was > 100 µM (inactive); in the assay on NCI-H23 it was > 100 µM (inactive); with OVCAR-3, 56.6 µM (inactive); with OVCAR-5, > 100 µM (inactive); in the assay with RXF 393 it was 80 µM (inactive). Further, the GI50 in the assay on SF-268 is > 100 µM (inactive); in the assay on SK-MEL-5, 69.3 µM (inactive); in the assay on SK-OV-3, > 100 µM (inactive); in the assay on SNB-75, > 100 µM (inactive); in the assay with T47D it was > 100 µM (inactive); in the assay on TK-10, 92.5 µM (inactive).
In the case of `[N-]=[N+]=C(C(=O)CN1CCCC1=O)S(=O)(=O)c1ccccc1`, the GI50 with 786-0, in the assay on EKVX, with HCT-116, in the assay with HT-29, with Hs-578T and in the assay on LOX IMVI was > 100 µM (inactive) each time. Moreover, the GI50 in the assay with MDA-N, in the assay with NCI-H226, in the assay on NCI-H23, in the assay with OVCAR-3, in the assay on OVCAR-5 and in the assay on RXF 393 was > 100 µM (inactive) throughout. Besides, the GI50 with SF-268, in the assay with SK-MEL-5, in the assay on SNB-75, with TK-10 and in the assay with UACC-257 was > 100 µM (inactive) in each case.
Turning to `C[C@@]1(Br)C[C@@](C)(Cl)[C@@H](Br)CC1/C=C/Cl` (some centres not stated), the GI50 in the assay with 786-0 is 16.6 µM (inactive); with HCT-116 it was 11 µM (inactive); in the assay with HT-29, 16.1 µM (inactive); in the assay with Hs-578T, 16.7 µM (inactive); in the assay with LOX IMVI, 17.6 µM (inactive); in the assay with MDA-N, 15.8 µM (inactive). The GI50 in the assay on NCI-H226 is 10.8 µM (inactive); with NCI-H23 it was 28.6 µM (inactive); in the assay on OVCAR-3 it was 15.1 µM (inactive); with OVCAR-5, 15.1 µM (inactive); in the assay on SF-268 it was 11.1 µM (inactive); in the assay with SK-MEL-5, 13.6 µM (inactive). The GI50 with SK-OV-3 was 17.5 µM (inactive); in the assay on SNB-75 it was 12.8 µM (inactive); in the assay on TK-10, 18.4 µM (inactive); with UACC-257, 17.9 µM (inactive).
For the compound `Nc1ccc(COC(O)CN2CCCCC2)cc1[N+](=O)[O-]` (configuration not stated), the GI50 in the assay with 786-0, with CAKI-1, in the assay with HCT-116, in the assay on HT-29, in the assay with MDA-N and with NCI-H226 was > 100 µM (inactive) in each case. The GI50 with NCI-H23, in the assay with OVCAR-3, with OVCAR-5, in the assay with RXF 393, in the assay on SF-268 and in the assay on SK-MEL-5 was > 100 µM (inactive) each time. In addition, the GI50 in the assay on SNB-75 is 70.5 µM (inactive); with T47D it was > 100 µM (inactive); in the assay with TK-10 it was > 100 µM (inactive); in the assay with UACC-257 it was > 100 µM (inactive).
`C1=N\CCOCC/N=C/c2ccccc2OCc2cccc(n2)COc2ccccc2/1`: the GI50 in the assay on 786-0 was 10 µM (inactive); in the assay with EKVX it was 16.6 µM (inactive); with HCT-116, 4.99 µM (inactive); in the assay on HT-29, 5.22 µM (inactive); with Hs-578T, 6.82 µM (inactive); with MDA-N, 0.942 µM (active). For the same compound, the GI50 in the assay on NCI-H23 is 12.5 µM (inactive); with OVCAR-3 it was 3.51 µM (inactive); in the assay on OVCAR-5, 5.26 µM (inactive); in the assay on RXF 393 it was 9.59 µM (inactive); in the assay on SF-268 it was 9.4 µM (inactive); in the assay on SK-OV-3, 11.2 µM (inactive). In addition, the GI50 in the assay on SNB-75 was 2.83 µM (inactive); in the assay with TK-10, 6.27 µM (inactive); in the assay with UACC-257, 8.11 µM (inactive).
For the compound `CSC1=N/C(=C\c2cccs2)C(=O)N1CN1CCCCC1`, the GI50 with 786-0 was 65.6 µM (inactive); in the assay with EKVX it was 24 µM (inactive); in the assay with HCT-116, 52.5 µM (inactive); in the assay on HT-29, 25.1 µM (inactive); in the assay on Hs-578T, 18.3 µM (inactive); with LOX IMVI it was 23.1 µM (inactive). Further, the GI50 is > 100 µM (inactive) in the assay on MDA-N; 57.8 µM (inactive) in the assay on NCI-H226; > 100 µM (inactive) in the assay on NCI-H23; > 100 µM (inactive) in the assay with OVCAR-3; > 100 µM (inactive) in the assay on OVCAR-5; 37.8 µM (inactive) in the assay on SF-268. Moreover, the GI50 was 66.8 µM (inactive) with SK-MEL-5, > 100 µM (inactive) in the assay with SK-OV-3, 31.9 µM (inactive) with SNB-75 and > 100 µM (inactive) in the assay on TK-10.
On to `N#Cc1cc2c(cc1Cl)Sc1nccn1S2(=O)=O`, for which the GI50 with 786-0 was 14.8 µM (inactive); in the assay on CAKI-1 it was 1.4 µM (inactive); in the assay on EKVX, 14.5 µM (inactive); in the assay on HCT-116, 1.79 µM (inactive); in the assay on HT-29, 0.977 µM (active); with Hs-578T, 2.68 µM (inactive). The GI50 with LOX IMVI is 1.57 µM (inactive); in the assay with NCI-H226, 5.89 µM (inactive); with NCI-H23, 1.51 µM (inactive); in the assay on OVCAR-3, 0.668 µM (active); with OVCAR-5, 14.4 µM (inactive); in the assay with RXF 393 it was 4.61 µM (inactive). In addition, the GI50 was 3.33 µM (inactive) in the assay on SF-268; 9.93 µM (inactive) with SK-MEL-5; 4.47 µM (inactive) in the assay on SK-OV-3; 7.53 µM (inactive) with SNB-75; 1.99 µM (inactive) in the assay on T47D; 13.5 µM (inactive) with TK-10. In the assay on UACC-257, the GI50 is 2.21 µM (inactive).
Turning to `NC1=NC(=O)C2(NN1)c1ccccc1-c1ccccc12`, the GI50 with 786-0, with CAKI-1, in the assay with HCT-116, in the assay with LOX IMVI, in the assay on MDA-N and with NCI-H226 was > 10 µM (inactive) in each case. Further, the GI50 in the assay with NCI-H23, in the assay on OVCAR-3, with OVCAR-5, in the assay on RXF 393, in the assay with SF-268 and in the assay on SK-MEL-5 was > 10 µM (inactive) in each case. Further, the GI50 in the assay on SK-OV-3 was > 10 µM (inactive); with SNB-75 it was > 10 µM (inactive); with T47D it was 2.42 µM (inactive); with TK-10, > 10 µM (inactive).
For `COc1cc(C(=O)n2c3ccc(Br)cc3c3nc4ccccc4nc32)cc(OC)c1OC`, the GI50 is 44.8 µM (inactive) in the assay with 786-0; > 100 µM (inactive) with CAKI-1; > 100 µM (inactive) with EKVX; > 100 µM (inactive) in the assay on HCT-116; > 100 µM (inactive) with HT-29; > 100 µM (inactive) with LOX IMVI. The GI50 with MDA-N was > 100 µM (inactive); in the assay on NCI-H226 it was > 100 µM (inactive); in the assay with NCI-H23, > 100 µM (inactive); in the assay on OVCAR-3 it was > 100 µM (inactive); in the assay on OVCAR-5, > 100 µM (inactive); in the assay on RXF 393, 19.7 µM (inactive). The GI50 with SF-268 is 60.5 µM (inactive); with SK-MEL-5, > 100 µM (inactive); in the assay on SNB-75 it was 26.2 µM (inactive); in the assay with T47D, > 100 µM (inactive); in the assay with TK-10, 32.7 µM (inactive); with UACC-257, > 100 µM (inactive).
Consider `C=C(C)C12OC3(c4ccccc4)OC1C1C4OC4(CO)C(O)C4(O)C(=O)C(C)=CC4C1(O3)C(C)C2OC(=O)/C=C/C=C/c1ccccc1` (configuration not stated), for which the GI50 in the assay on 786-0 was 0.101 µM (active); in the assay on CAKI-1, 0.504 µM (active); with EKVX, 0.188 µM (active); in the assay on HCT-116 it was 0.228 µM (active); with HT-29, 0.0836 µM (active); in the assay with LOX IMVI, 0.0968 µM (active). The GI50 with MDA-N is < 0.0005 µM (active); in the assay with NCI-H226 it was 0.228 µM (active); in the assay with NCI-H23, 0.312 µM (active); in the assay with OVCAR-3, 0.109 µM (active); in the assay with OVCAR-5 it was 0.0802 µM (active); in the assay with RXF 393 it was 0.207 µM (active). The GI50 in the assay with SF-268 is 0.247 µM (active); with SK-MEL-5, 0.0716 µM (active); with SK-OV-3, 1.15 µM (inactive); in the assay with SNB-75, 0.132 µM (active); with T47D, 1.51 µM (inactive); in the assay with TK-10 it was < 0.0005 µM (active). The GI50 with UACC-257 was 0.453 µM (active).
